Assay results taken from PubChem BioAssay AID248 (DTP/NCI, 2004).
Toxic doses and inconclusive results are not listed. Cut-off read from the data, not from the text of the source: active = T/C of 150% or more; inactive = T/C below 125%.

Tested on: L1210 leukemia ip in BDF1 mice, survival T/C
Test: NCI In Vivo Anticancer Drug Screen. Data for tumor model L1210 Leukemia (intraperitoneal) in B6D2F1 (BDF1) mice
Conditions: endpoint: mean survival time, higher = longer survival
Summary of the method: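 Transplantable tumor model; survival measured in treated vs vehicle control mice. Value = treated/control.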

[1] = dose: 100.0 mg/kg/injection, schedule: Q01DX009 (ip), vehicle: saline with Tween-80
[2] = dose: 100.0 mg/kg/injection, schedule: Q04DX003 (ip), vehicle: Klucel (hydroxypropylcellulose) (HPC)
[3] = dose: 200.0 mg/kg/injection, schedule: Q04DX003 (ip), vehicle: Klucel (hydroxypropylcellulose) (HPC)
[4] = dose: 400.0 mg/kg/injection, schedule: Q04DX003 (ip), vehicle: Klucel (hydroxypropylcellulose) (HPC)
[5] = dose: 50.0 mg/kg/injection, schedule: Q04DX003 (ip), vehicle: Klucel (hydroxypropylcellulose) (HPC)
[6] = dose: 100.0 mg/kg/injection, schedule: Q01DX001 (ip), vehicle: saline
[7] = dose: 200.0 mg/kg/injection, schedule: Q01DX001 (ip), vehicle: saline
[8] = dose: 400.0 mg/kg/injection, schedule: Q01DX001 (ip), vehicle: saline
[9] = dose: 100.0 mg/kg/injection, schedule: Q04DX003 (ip), vehicle: saline with Tween-80
[10] = dose: 200.0 mg/kg/injection, schedule: Q01DX009 (ip), vehicle: saline with Tween-80
[11] = dose: 200.0 mg/kg/injection, schedule: Q04DX003 (ip), vehicle: saline with Tween-80
[12] = dose: 400.0 mg/kg/injection, schedule: Q04DX003 (ip), vehicle: saline with Tween-80
[13] = dose: 100.0 mg/kg/injection, schedule: Q01DX009 (ip), vehicle: Klucel (hydroxypropylcellulose) (HPC)
[14] = dose: 200.0 mg/kg/injection, schedule: Q01DX009 (ip), vehicle: Klucel (hydroxypropylcellulose) (HPC)
[15] = dose: 400.0 mg/kg/injection, schedule: Q01DX009 (ip), vehicle: Klucel (hydroxypropylcellulose) (HPC)

Measured: T/C

COc1ccc(/C(N=Nc2ccccc2)=N/N=C(N)N)cc1
inactive: dose: 20.0 mg/kg/injection, schedule: Q01DX001 (ip), vehicle: steriod suspending solution 105 % of control | dose: 40.0 mg/kg/injection, schedule: Q01DX001 (ip), vehicle: steriod suspending solution 94 % of control | dose: 80.0 mg/kg/injection, schedule: Q01DX001 (ip), vehicle: steriod suspending solution 96 % of control

Fc1ccc(Nc2c3ccccc3nc3ccccc23)cc1
inactive: dose: 25.0 mg/kg/injection, schedule: Q01DX009 (ip), vehicle: saline with Tween-80 92 % of control | dose: 50.0 mg/kg/injection, schedule: Q01DX009 (ip), vehicle: saline with Tween-80 118 % of control | [1] 116 % of control

COC(=O)COC1=NCC([N+](=O)[O-])CC1 (stereo unspecified)
inactive: [2] 100 % of control | [3] 107 % of control | [4] 102 % of control

Cc1cc(=O)n(CC(=O)O)c2ccccc12
inactive: [5] 88 % of control | [6] 100 % of control | [2] 90 % of control | [7] 100 % of control | [8] 98 % of control

CCOC(=O)C1CC2(Cl)C(Cl)=C(Cl)C1(Cl)C2(Cl)Cl (stereo unspecified)
inactive: [6] 98 % of control | dose: 100.0 mg/kg/injection, schedule: Q04DX003 (ip), vehicle: saline 94 % of control | [7] 93 % of control | dose: 200.0 mg/kg/injection, schedule: Q04DX003 (ip), vehicle: saline 94 % of control | [8] 98 % of control | dose: 400.0 mg/kg/injection, schedule: Q04DX003 (ip), vehicle: saline 93 % of control

Cc1ccccc1C1c2ccccc2C(=O)c2cccc(C)c21 (stereo unspecified)
inactive: [1] 101 % of control | [9] 89 % of control | [10] 101 % of control | [11] 102 % of control | dose: 400.0 mg/kg/injection, schedule: Q01DX009 (ip), vehicle: saline with Tween-80 97 % of control | [12] 94 % of control

C#CC1(OC(=O)Nc2cc3ccccc3o2)CCCCC1
inactive: [9] 90 % of control | [11] 95 % of control | [12] 92 % of control

O=S1(=O)CCCCC1
inactive: dose: 75.0 mg/kg/injection, schedule: Q01DX009 (ip), vehicle: other 106 % of control | dose: 100.0 mg/kg/injection, schedule: Q04DX003 (ip), vehicle: saline sonified 95 % of control | dose: 150.0 mg/kg/injection, schedule: Q01DX009 (ip), vehicle: other 101 % of control | dose: 200.0 mg/kg/injection, schedule: Q04DX003 (ip), vehicle: saline sonified 93 % of control | dose: 300.0 mg/kg/injection, schedule: Q01DX009 (ip), vehicle: other 93 % of control | dose: 400.0 mg/kg/injection, schedule: Q04DX003 (ip), vehicle: saline sonified 95 % of control

CCc1cc(Cl)ccc1OCC(=O)O
inactive: [1] 97 % of control | [10] 105 % of control

COC(=O)C(=CC(Cl)(Cl)Cl)C(=O)OC
inactive: dose: 6.2 mg/kg/injection, schedule: Q01DX009 (ip), vehicle: Klucel (hydroxypropylcellulose) (HPC) 102 % of control | dose: 12.5 mg/kg/injection, schedule: Q01DX009 (ip), vehicle: Klucel (hydroxypropylcellulose) (HPC) 96 % of control | dose: 25.0 mg/kg/injection, schedule: Q01DX009 (ip), vehicle: Klucel (hydroxypropylcellulose) (HPC) 96 % of control | dose: 25.0 mg/kg/injection, schedule: Q04DX003 (ip), vehicle: Klucel (hydroxypropylcellulose) (HPC) 102 % of control | [5] 97 % of control | dose: 100.0 mg/kg/injection, schedule: Q01DX001 (ip), vehicle: Klucel (hydroxypropylcellulose) (HPC) 101 % of control | [2] 97 % of control | dose: 200.0 mg/kg/injection, schedule: Q01DX001 (ip), vehicle: Klucel (hydroxypropylcellulose) (HPC) 105 % of control | [3] 102 % of control

CCOC(=O)c1cccc2cccc(C(=O)OCC)c12
inactive: dose: 50.0 mg/kg/injection, schedule: Q01DX001 (ip), vehicle: carboxymethylcellulose (CMC) 97 % of control | dose: 100.0 mg/kg/injection, schedule: Q01DX001 (ip), vehicle: carboxymethylcellulose (CMC) 101 % of control | dose: 200.0 mg/kg/injection, schedule: Q01DX001 (ip), vehicle: carboxymethylcellulose (CMC) 101 % of control | dose: 400.0 mg/kg/injection, schedule: Q01DX001 (ip), vehicle: carboxymethylcellulose (CMC) 97 % of control

C=CCN(N=O)C(N)=O
inactive: dose: 12.5 mg/kg/injection, schedule: Q01DX Z (ip), vehicle: methylcellulose (MC) 106 % of control | dose: 25.0 mg/kg/injection, schedule: Q01DX Z (ip), vehicle: methylcellulose (MC) 108 % of control | dose: 50.0 mg/kg/injection, schedule: Q01DX Z (ip), vehicle: methylcellulose (MC) 117 % of control

CC(=O)OCC1CC2C=CC1C2 (stereo unspecified)
inactive: dose: 222.0 mg/kg/injection, schedule: Q01DX Z (ip), vehicle: saline 98 % of control | dose: 333.0 mg/kg/injection, schedule: Q01DX Z (ip), vehicle: saline 102 % of control | dose: 500.0 mg/kg/injection, schedule: Q01DX Z (ip), vehicle: saline 104 % of control

CC(=O)C1(C)OC(c2ccccc2)=NC1=O (stereo unspecified)
inactive: [6] 104 % of control | [7] 93 % of control | [8] 115 % of control

O=C(NCCO)Nc1ccccc1Cl
inactive: dose: 100.0 mg/kg/injection, schedule: Q04DX002 (ip), vehicle: saline 103 % of control | dose: 200.0 mg/kg/injection, schedule: Q04DX002 (ip), vehicle: saline 100 % of control | dose: 400.0 mg/kg/injection, schedule: Q04DX002 (ip), vehicle: saline 100 % of control

CCCCNC(=O)Nc1ccccc1CC
inactive: [13] 93 % of control | [2] 95 % of control | [14] 96 % of control | [3] 106 % of control | [15] 93 % of control | [4] 97 % of control

Cc1ccc(SP(=S)(Sc2ccc(C)cc2)Sc2ccc(C)cc2)cc1
inactive: [13] 97 % of control | [14] 97 % of control | [15] 94 % of control

CC(=O)CC(=O)N1CCCCCC1
inactive: dose: 100.0 mg/kg/injection, schedule: Q01DX009 (ip), vehicle: gum acacia 93 % of control | [9] 98 % of control | dose: 200.0 mg/kg/injection, schedule: Q01DX009 (ip), vehicle: gum acacia 98 % of control | [11] 95 % of control | dose: 400.0 mg/kg/injection, schedule: Q01DX009 (ip), vehicle: gum acacia 101 % of control | [12] 102 % of control

Cc1cc(Cl)ccc1OC(=O)Nc1ccccc1F
inactive: [13] 110 % of control | [14] 98 % of control | [15] 121 % of control

CC(=O)CC(=O)Nc1nc(C)cs1
inactive: dose: 75.0 mg/kg/injection, schedule: Q01DX001 (ip), vehicle: Klucel (hydroxypropylcellulose) (HPC) 100 % of control | dose: 150.0 mg/kg/injection, schedule: Q01DX001 (ip), vehicle: Klucel (hydroxypropylcellulose) (HPC) 100 % of control | dose: 300.0 mg/kg/injection, schedule: Q01DX001 (ip), vehicle: Klucel (hydroxypropylcellulose) (HPC) 95 % of control

O=C(Nc1ccc(Cl)c(Cl)c1)Nc1c(Oc2ccc(Cl)c(Cl)c2)ccc(Cl)c1S(=O)(=O)O
inactive: dose: 6.25 mg/kg/injection, schedule: Q01DX009 (ip), vehicle: saline 94 % of control | dose: 12.5 mg/kg/injection, schedule: Q01DX009 (ip), vehicle: saline 93 % of control | dose: 25.0 mg/kg/injection, schedule: Q01DX009 (ip), vehicle: saline 96 % of control
